Where two headings read alike, the source gives them in different places.
Key:
adrenergic receptor α1A = biological target: T1, adrenergic receptor α1A (Rattus norvegicus, UniProt P43140); assay: radioligand binding to adrenergic receptor α1A ([3H] Prazosin)
T1 construct: membrane species from rat submaxillary glands (rat of Wistar breed) are prepared; from tissue; host or cells: rat (Wistar) submaxillary gland membranes
T1 sequence (P43140 1-466): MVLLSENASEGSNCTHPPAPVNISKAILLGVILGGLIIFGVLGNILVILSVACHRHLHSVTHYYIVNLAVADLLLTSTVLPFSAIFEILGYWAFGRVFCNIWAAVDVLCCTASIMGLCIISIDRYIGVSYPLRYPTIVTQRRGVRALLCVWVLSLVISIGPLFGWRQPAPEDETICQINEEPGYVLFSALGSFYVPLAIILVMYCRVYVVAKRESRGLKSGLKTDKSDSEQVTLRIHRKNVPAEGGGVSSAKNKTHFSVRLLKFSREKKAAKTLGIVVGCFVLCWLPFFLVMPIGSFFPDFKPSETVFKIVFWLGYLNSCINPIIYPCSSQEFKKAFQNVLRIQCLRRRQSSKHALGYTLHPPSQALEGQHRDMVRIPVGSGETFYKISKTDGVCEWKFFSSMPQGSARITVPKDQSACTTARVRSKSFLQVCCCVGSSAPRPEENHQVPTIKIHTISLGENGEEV
Method: Determination of investigated compounds' binding to α1A receptor was carried out according to the method described in [Michel A D, Loury D N and Whiting R l. Identification of a single α1A-adrenoceptor corresponding to the α1A-subtype in rat submaxillary gland. Br J. Pharmacol. 98:883-889, 1989]. […] Prazosin is used as positive control.

human α1D receptor = biological target: T2, human α1D receptor (Homo sapiens, UniProt P25100); assay: radioligand binding to adrenergic receptor α1D ([3H] Prazosin)
T2 construct: expressed in transfected cells; host or cells: HEK-293
T2 sequence (P25100 1-572): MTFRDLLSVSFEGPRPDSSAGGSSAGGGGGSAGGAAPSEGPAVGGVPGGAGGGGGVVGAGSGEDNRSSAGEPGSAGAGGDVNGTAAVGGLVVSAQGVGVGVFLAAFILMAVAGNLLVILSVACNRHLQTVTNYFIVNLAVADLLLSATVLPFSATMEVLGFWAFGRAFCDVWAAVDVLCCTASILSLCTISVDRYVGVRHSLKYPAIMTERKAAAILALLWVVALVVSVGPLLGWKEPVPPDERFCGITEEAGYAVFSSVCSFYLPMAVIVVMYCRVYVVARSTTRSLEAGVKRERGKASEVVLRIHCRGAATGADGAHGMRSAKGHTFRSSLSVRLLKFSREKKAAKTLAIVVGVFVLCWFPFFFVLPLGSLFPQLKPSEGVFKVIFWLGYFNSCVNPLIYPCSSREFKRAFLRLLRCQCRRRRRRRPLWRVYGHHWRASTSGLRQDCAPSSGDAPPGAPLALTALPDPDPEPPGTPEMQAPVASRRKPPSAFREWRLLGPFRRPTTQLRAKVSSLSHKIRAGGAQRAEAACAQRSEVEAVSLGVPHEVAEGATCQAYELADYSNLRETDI
Source text: 6-C. […] For this purpose sDNA of human α1D receptor is expressed in HEK-293 cells, as it was described in [T L Theroux, T A Esbenshade, R D Peavy and K P Minneman. Coupling efficiencies of human alpha 1-adrenergic receptor subtypes: titration of receptor density and responsiveness with inducible and repressible expression vectors. Mol. Pharmacol.; 50: 1376-1387, 1996]. […] Prazosin is used as positive control.

human α2A receptor = biological target: T3, human α2A receptor (Homo sapiens, UniProt P08913); assay: radioligand binding to adrenergic receptor α2A ([3H] MK-912)
T3 construct: expressed in transfected cells; host or cells: Sf9
T3 sequence (P08913 1-465): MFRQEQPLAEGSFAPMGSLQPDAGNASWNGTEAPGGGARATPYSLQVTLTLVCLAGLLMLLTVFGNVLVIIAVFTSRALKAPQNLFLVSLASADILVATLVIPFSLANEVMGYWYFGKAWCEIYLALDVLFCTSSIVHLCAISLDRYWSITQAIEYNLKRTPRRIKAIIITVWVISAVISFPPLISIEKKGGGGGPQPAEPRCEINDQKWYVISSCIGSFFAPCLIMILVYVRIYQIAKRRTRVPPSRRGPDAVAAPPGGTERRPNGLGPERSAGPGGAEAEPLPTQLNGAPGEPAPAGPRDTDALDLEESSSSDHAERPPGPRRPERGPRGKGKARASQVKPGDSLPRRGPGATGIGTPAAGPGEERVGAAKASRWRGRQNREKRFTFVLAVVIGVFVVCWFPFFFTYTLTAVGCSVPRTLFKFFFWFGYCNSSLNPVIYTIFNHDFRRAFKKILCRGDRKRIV
Source text: J Pharmacol ExpTher. […] Yohimbine is used as positive control.

human D1 receptor = biological target: T4, human D1 receptor (Homo sapiens, UniProt P21728); assay: radioligand binding to dopamine receptor D1 ([3H] SCH-23390); settings: for Dopamine receptor D1, % inhibition: 10 μM ligand
T4 construct: expressed in transfected cells; host or cells: CHO
Source text: For this purpose sDNA of human D1 receptor is expressed in CHO cells, as it was described in [Dearry A, Gingrich J A, Falardeau P, Fremeau R T Jr, Bates M D and Caron M G. Molecular cloning and expression of the gene for a human D1 dopamine receptor. Nature. […] Nature.

human D3 receptor = biological target: T5, human D3 receptor (Homo sapiens, UniProt P35462); assay: radioligand binding to dopamine receptor D3 ([3H] Spiperone); settings: for Dopamine receptor D3, % inhibition: 10 μM ligand
T5 construct: expressed in transfected cells; host or cells: CHO
Source text: For this purpose sDNA of human D3 receptor is expressed in CHO cells, as it was described in [Sokoloff P, Giros B, Martres M-P, Bouthenet M-L and Schwartz J-C. Molecular cloning and characterization of novel dopamine receptor (D3) as target for neuroleptics. Nature. […] Molecular cloning and characterization of novel dopamine receptor (D3) as target for neuroleptics. Nature. […] Spiperone is used as positive control.

[1] = biological target: T6, recombinant human 5-HT6 receptor (Homo sapiens, UniProt P50406); assay: radioligand binding to serotonin receptor 5-HT6 ([3H] Lysergic acid diethylamide); settings: for inhibition at 1 µM: read-out: 5-HT6 % inhibition
T6 construct: expressed in transfected cells; host or cells: HeLa
Source text: Mol. Pharmacol. 43:320-327, 1993]. […] Methiothepin is used as positive control.

imidazoline receptor I2 = assay: radioligand binding to imidazoline receptor I2 ([3H] Idazoxan); design: species or system rat
Method: Determination of investigated compounds' binding to imidazoline I2 receptor is carried out according to the method described in [Brown C M, MacKinnon A C, McGrath J C, Spedding M and Kilpatrick A T, a2-Adrenoceptor subtypes and imidazoline-like binding in the rat brain. Br J. Pharmacol. 99:803-809, 1990]. […] Idazoxan is used as positive control.

T6 sequence (P50406 whole entry): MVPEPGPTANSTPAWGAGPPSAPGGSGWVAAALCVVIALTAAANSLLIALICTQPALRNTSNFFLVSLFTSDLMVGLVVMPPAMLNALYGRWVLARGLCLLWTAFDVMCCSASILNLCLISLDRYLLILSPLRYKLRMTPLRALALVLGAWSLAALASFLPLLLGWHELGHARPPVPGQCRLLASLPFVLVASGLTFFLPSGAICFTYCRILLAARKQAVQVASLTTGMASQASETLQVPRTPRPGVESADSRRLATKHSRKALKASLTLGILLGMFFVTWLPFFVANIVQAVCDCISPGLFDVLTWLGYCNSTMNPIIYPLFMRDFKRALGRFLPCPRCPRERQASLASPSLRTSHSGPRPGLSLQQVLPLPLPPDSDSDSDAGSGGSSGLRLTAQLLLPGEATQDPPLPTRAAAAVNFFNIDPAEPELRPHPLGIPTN
T4 sequence (P21728 whole entry): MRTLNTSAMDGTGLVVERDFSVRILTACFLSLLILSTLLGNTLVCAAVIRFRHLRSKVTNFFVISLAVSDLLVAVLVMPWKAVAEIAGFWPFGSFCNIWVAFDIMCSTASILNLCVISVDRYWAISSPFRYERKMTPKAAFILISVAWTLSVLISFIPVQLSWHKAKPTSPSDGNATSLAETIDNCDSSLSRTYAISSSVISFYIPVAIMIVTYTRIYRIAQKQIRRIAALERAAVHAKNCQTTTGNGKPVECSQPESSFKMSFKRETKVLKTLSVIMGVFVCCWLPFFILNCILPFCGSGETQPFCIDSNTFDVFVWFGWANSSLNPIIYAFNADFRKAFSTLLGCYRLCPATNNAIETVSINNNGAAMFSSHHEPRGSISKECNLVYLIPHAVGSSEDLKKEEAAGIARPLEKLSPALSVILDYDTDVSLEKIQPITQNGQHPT
T5 sequence (P35462 whole entry): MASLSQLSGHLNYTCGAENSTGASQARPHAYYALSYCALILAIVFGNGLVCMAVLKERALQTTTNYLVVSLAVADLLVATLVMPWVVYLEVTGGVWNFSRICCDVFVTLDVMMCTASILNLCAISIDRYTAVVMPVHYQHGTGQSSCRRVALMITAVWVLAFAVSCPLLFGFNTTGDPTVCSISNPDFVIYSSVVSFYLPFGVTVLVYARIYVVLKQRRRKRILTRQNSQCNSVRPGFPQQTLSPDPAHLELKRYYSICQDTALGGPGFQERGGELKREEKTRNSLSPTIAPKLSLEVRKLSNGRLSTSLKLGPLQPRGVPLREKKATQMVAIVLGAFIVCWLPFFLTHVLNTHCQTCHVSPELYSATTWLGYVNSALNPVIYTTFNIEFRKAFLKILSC

Row | SMILES | α-Adrenoceptor α1D, % inhibition (human α1D receptor; 10 μM ligand) [%] | α-Adrenoceptor α2A, % inhibition (human α2A receptor; 10 μM ligand) [%] | Dopamine receptor D1, % inhibition (human D1 receptor) [%] | Dopamine receptor D3, % inhibition (human D3 receptor) [%] | IC50 (adrenergic receptor α1A) [nM] | Ki (adrenergic receptor α1A) [nM] | IC50 (human α1D receptor) [nM] | Ki (human α1D receptor) [nM] | IC50 (human α2A receptor) [nM] | Ki (human α2A receptor) [nM] | IC50 [1] [nM] | Ki [1] [nM] | nH 5-HT6 [1] | imidazoline I2 receptor % inhibition (imidazoline receptor I2; 10 μM ligand) [%] | further results
1 | Cc1ccc2c(c1)[C@H]1CN(C)CCC[C@@H]1N2CCc1cccnc1 [1.6.2(10)•3HCl] | 86 | 92 | 88 | 25 | – | – | – | – | – | – | – | – | – | – | α-Adrenoceptor α1A, % inhibition (adrenergic receptor α1A; 10 μM ligand): 86%; inhibition at 1 µM [1]: 93%
2 | CN1CCc2c(c3ccccc3n2Cc2ccccc2)C1 [1.9(1)•½NDSA, bis-(5-benzyl-2-methyl-2,3,4,5-tetrahydro-1H-pyrido[4,3-b]indole) naphtalene-1,5-disulfonate] | – | – | 77 | 65 | 510 | 206 | 1330 | 656 | 123 | 46.1 | 103 | 47.6 | 1.07 | – | nH α1A (adrenergic receptor α1A): 1.08; α-Adrenoceptor α1A, % inhibition (adrenergic receptor α1A; 1 μM ligand): 67(1 μM) %; nH α1D (human α1D receptor): 1.05; α-Adrenoceptor α1D, % inhibition (human α1D receptor; 3 μM ligand): 70(3 μM) %; nH α2A (human α2A receptor): 1.13; α-Adrenoceptor α2A, % inhibition (human α2A receptor; 0.3 μM ligand): 73(0.3 μM) %; nH D1 (human D1 receptor): 1.38; IC50 (human D3 receptor): 1360 nM; Ki (human D3 receptor): 462 nM; nH D3 (human D3 receptor): 1.04; 5-HT6 % inhibition ([1]; 0.3 μM ligand): 78%; imidazoline I2 receptor % inhibition (imidazoline receptor I2; 0.3 μM ligand): 87 (0.3 μM) %
3 | Cc1ccc2c(c1)c1c(n2CCc2ccccn2)CCN(C)C1.Cl.Cl [1.1.2(2-3)•2HCl] | – | – | – | – | 450 | 182 | 282 | 139 | 128 | 47.9 | 109 | 50.5 | 0.744 | 88 | inhibition at 1 µM ([1]; ligand concentration 1 μM): 97%
4 | Cc1ccc2c(c1)[C@@H]1CN(C)CCC[C@@H]1N2CCc1ccc(C)nc1.Cl.Cl.Cl (relative stereo) [1.6.1(2)•3HCl] | 87 | 82 | 55 | 41 | – | – | – | – | – | – | – | – | – | 80 | –
